We go through eight compounds from ChEMBL document CHEMBL1201862, “PubChem BioAssay data set” (2004).

SMILES strings stand for the structures. Where “and” joins values, the source holds several entries; their conditions need not be identical. Identical values can stand only once.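 Interpolation was linear, between the two tested concentrations surrounding the appropriate level; five concentrations were tested over 48 hours in 96-well plates. The concentration for 50% growth inhibition is given as GI50.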 Calls of active or inactive are those of the source. Cut-off read from the data, not from the text of the source: active = GI50 up to about 1.1 µM and inactive = higher. Bounds are passed on as bounds.

Test systems include OVCAR-8; SN12C; OVCAR-5; U-251; A549; UACC-62; SW-620; SK-MEL-5; SR; LOX IMVI; Malme-3M; COLO 205; EKVX; SF-268; IGROV-1; SF-295; RPMI-8226; KM12; HOP-62.
Common to all, as to experiment: NCI-60 cell line screen, 48 h

As to `C/C(CCOC1CCCCO1)=C(\C)[Si](C)(C)C` (stereo not given), the GI50 in the assay with OVCAR-8, in the assay with SN12C, in the assay on OVCAR-5, with U-251, with A549 and in the assay with UACC-62 was > 100 µM (inactive) in each case. Further, the GI50 in the assay on SW-620, with SK-MEL-5, in the assay on SR, in the assay with LOX IMVI, in the assay with Malme-3M and with COLO 205 was > 100 µM (inactive) in each case. Also, the GI50 in the assay on EKVX, in the assay with SF-268, with IGROV-1, with SF-295, with RPMI-8226 and in the assay with KM12 was > 100 µM (inactive) in each case.

In the case of `O=C(Nc1nnc(S)[nH]1)C(=O)C(c1cnc2ccc([N+](=O)[O-])cc2n1)[N+](=O)[O-]` (stereo not given), the GI50 in the assay on OVCAR-8, in the assay on SN12C, in the assay on OVCAR-5, in the assay on U-251, with A549 and with UACC-62 was > 100 µM (inactive) each time. Also, the GI50 in the assay on HOP-62, in the assay on SW-620, in the assay with SK-MEL-5, in the assay with SR, in the assay on LOX IMVI and in the assay on Malme-3M was > 100 µM (inactive) each time. For the same compound, the GI50 is > 100 µM (inactive) in the assay on COLO 205; > 100 µM (inactive) in the assay with EKVX; > 100 µM (inactive) with SF-268; > 100 µM (inactive) in the assay with IGROV-1; > 100 µM (inactive) in the assay on SF-295; 89.7 µM (inactive) in the assay on RPMI-8226. The GI50 in the assay with KM12 is > 100 µM (inactive).

In the case of `c1cc(CNC2C3CCC(C3)C2c2c[nH]c3ccccc23)cc(CNC2C3CCC(C3)C2c2c[nH]c3ccccc23)c1` (stereo not given), the GI50 was 1.4 µM (inactive) and 1.46 µM (inactive) with OVCAR-8; 1.84 µM (inactive) and 1.82 µM (inactive) with OVCAR-5; 619 nM (active) and 615 nM (active) in the assay with U-251; 600 nM (active) and 773 nM (active) in the assay on A549; 1.81 µM (inactive) and 1.74 µM (inactive) with UACC-62; 1.85 µM (inactive) and 1.77 µM (inactive) in the assay with HOP-62. Moreover, the GI50 with SK-MEL-5 is 1.85 µM (inactive) and 1.91 µM (inactive); in the assay with SR it was 258 nM (active) and 186 nM (active); in the assay with LOX IMVI, 555 nM (active) and 232 nM (active); with Malme-3M, 1.87 µM (inactive) and 1.77 µM (inactive); in the assay with EKVX, 1.76 µM (inactive) and 1.58 µM (inactive); in the assay on SF-268, 1.58 µM (inactive) and 1.53 µM (inactive). Moreover, the GI50 with IGROV-1 was 1.35 µM (inactive) and 1.59 µM (inactive); with SF-295, 1.73 µM (inactive) and 1.46 µM (inactive); in the assay on RPMI-8226, 0.207 µM (active); with KM12, 596 nM (active) and 759 nM (active).

For the compound `C=CCCCC12CCCc3cccc(c31)NC2=O` (stereo not given), the GI50 was 32.4 µM (inactive) with SN12C; 19.3 µM (inactive) in the assay with OVCAR-5; 22 µM (inactive) in the assay on U-251; 20.2 µM (inactive) with A549; 16.8 µM (inactive) in the assay with UACC-62; 34 µM (inactive) in the assay with HOP-62. The GI50 in the assay on SW-620 is 20 µM (inactive); in the assay with SK-MEL-5, 16.3 µM (inactive); with SR, 20.8 µM (inactive); in the assay with LOX IMVI it was 21.6 µM (inactive); in the assay with Malme-3M, 15.6 µM (inactive); in the assay with COLO 205, 20.2 µM (inactive). Besides, the GI50 with EKVX is 19.1 µM (inactive); with IGROV-1 it was 17.1 µM (inactive); with SF-295 it was 76.2 µM (inactive); in the assay with RPMI-8226 it was 19.7 µM (inactive); with KM12, 17.4 µM (inactive).

In the case of `COc1ccc(-n2cnnc2-c2nsc3ccccc23)cc1`, the GI50 with OVCAR-8 is > 100 µM (inactive); with SN12C, 99.8 µM (inactive); in the assay on OVCAR-5 it was > 100 µM (inactive); in the assay with U-251, > 100 µM (inactive); in the assay on A549, > 100 µM (inactive); in the assay on UACC-62, > 100 µM (inactive). Besides, the GI50 was 94.8 µM (inactive) in the assay with HOP-62; > 100 µM (inactive) in the assay with SW-620; > 100 µM (inactive) in the assay with SK-MEL-5; > 100 µM (inactive) in the assay on SR; > 100 µM (inactive) in the assay with LOX IMVI; > 100 µM (inactive) in the assay on COLO 205. The GI50 is > 100 µM (inactive) with EKVX; 75.3 µM (inactive) in the assay with SF-268; > 100 µM (inactive) with IGROV-1; 60 µM (inactive) in the assay with RPMI-8226; 95.1 µM (inactive) in the assay with KM12.

On to `CCOC(=O)N1CCC(=O)C(CNC23CC4CC(CC(C4)C2)C3)C1` (stereo not given), for which the GI50 was 21.2 µM (inactive) in the assay on OVCAR-8; > 100 µM (inactive) in the assay with SN12C; > 100 µM (inactive) in the assay on OVCAR-5; > 100 µM (inactive) in the assay on U-251; > 100 µM (inactive) with A549; > 100 µM (inactive) in the assay with UACC-62. The GI50 was > 100 µM (inactive) in the assay on HOP-62; 19.8 µM (inactive) with SW-620; 80.2 µM (inactive) in the assay on SK-MEL-5; 21.7 µM (inactive) in the assay with SR; 19 µM (inactive) with LOX IMVI; 17.7 µM (inactive) in the assay with Malme-3M. The GI50 is 37.4 µM (inactive) in the assay with COLO 205; > 100 µM (inactive) in the assay with EKVX; > 100 µM (inactive) in the assay with SF-268; > 100 µM (inactive) in the assay with SF-295; > 100 µM (inactive) in the assay with KM12.

For `O=C(O)CSc1nnc(-c2ccc(O)cc2)[nH]1`, the GI50 was > 100 µM (inactive) in the assay on OVCAR-8; > 10 µM (inactive) in the assay with SN12C; > 100 µM (inactive) with OVCAR-5; > 100 µM (inactive) with U-251; > 100 µM (inactive) with A549; > 100 µM (inactive) in the assay on UACC-62. Moreover, the GI50 in the assay on HOP-62, with SW-620, in the assay on SK-MEL-5, with SR, with Malme-3M and with COLO 205 was > 100 µM (inactive) each time. The GI50 in the assay with EKVX, in the assay on SF-268, in the assay on IGROV-1, in the assay on SF-295, in the assay with RPMI-8226 and with KM12 was > 100 µM (inactive) each time.

On to `CC(=O)OC(/C=C1/C=CC(=O)O1)COC(=O)c1ccccc1` (stereo not given) [ACETYLMELODORINOL], for which the GI50 with OVCAR-8, in the assay on SN12C, with OVCAR-5, with U-251, in the assay on A549 and in the assay with UACC-62 was > 31.2 µM (inactive) each time. In addition, the GI50 in the assay with HOP-62, in the assay on SW-620, with SK-MEL-5, in the assay on LOX IMVI, with Malme-3M and in the assay with COLO 205 was > 31.2 µM (inactive) throughout. Moreover, the GI50 in the assay on EKVX, in the assay with SF-268, in the assay on IGROV-1, in the assay with SF-295, in the assay on RPMI-8226 and in the assay on KM12 was > 31.2 µM (inactive) throughout.
